According to PMC10671431, “New Derivatives of N-Hydroxybutanamide: Preparation, MMP Inhibition, Cytotoxicity, and Antitumor Activity” (International Journal of Molecular Sciences, 2023):
Entries after “also recorded” stand apart in the source; their conditions may differ.

How the values were obtained:
[1] = target: T1, MMP-14 (Homo sapiens, UniProt P50281); assay: MMP activity assay, fluorogenic substrate (MMP Inhibitor Profiling Kit); assay type: biochemical
T1 construct: the BML- prefix points to Enzo Life Sciences, own knowledge BML-AK308
Experimental: (§1) Determination of MMP activity. A fluorescently labeled substrate probe containing a fluorescent label and a fluorescence quencher, was utilized for this study. […] Enzyme activity was assessed using the MMP Inhibitor Profiling Kit (Product # BML-AK308, New York, NY, USA) according to the manufacturer’s recommendations. The nonspecific inhibitor NNGH was used as a positive control. The fluorescence of the fluorogenic substrate OmniMMP^TM RED was measured at wavelengths Ex/Em = 545/576 nm using a Spark 10M multimode plate reader (Tecan, Zurich, Switzerland). Reaction rates were expressed in relative fluorescence units (RFUs) per minute. The activity of MMPs in the presence of the studied compounds was determined as follows:Activity, % = (Vinh/Vcont) × 100,(1) where V is the initial reaction rate (RFUs/min) in the presence (Vinh) and absence (Vcont) of the studied compounds.
(§2) All tested compounds were dissolved in DMSO. The final concentration of DMSO in all samples was 0.1%. Control samples were treated with 0.1% DMSO.

[2] = target: T2, MMP-2 (Homo sapiens, UniProt P08253); assay: as above; assay type: biochemical
T2 construct: the BML- prefix points to Enzo Life Sciences, own knowledge BML-AK308
Experimental: as §1, §2

[3] = target: T3, MMP-3 (Homo sapiens, UniProt P08254); assay: as above; assay type: biochemical
T3 construct: the BML- prefix points to Enzo Life Sciences, own knowledge BML-AK308
Experimental: as §1, §2

[4] = target: T4, MMP-9 (Homo sapiens, UniProt P14780); assay: as above; assay type: biochemical
T4 construct: the BML- prefix points to Enzo Life Sciences, own knowledge BML-AK308
Experimental: as §1, §2

[5] = system: BDF1 mice; assay: Acute toxicity in vivo
Experimental: Acute toxicity. Experiments involving animals were conducted at the Unique Scientific Unit “Nursery and Vivarium of the FRC PCP MC RAS” in accordance with the rules established by the Commission on Bioethics of the FRC PCP MC RAS (protocol No. 7/22 dated 20 June 2022) and the European Convention for the Protection of Vertebrate Animals for experimental and scientific purposes. Clinically healthy BDF1 hybrid males weighing 20–22 g were utilized. The mice were housed in a conventional vivarium with a 12 h light regime and provided with free access to water and food. Each experimental group consisted of six animals. Compound 4 was dissolved in DMSO and then diluted with 0.9% NaCl to reduce the DMSO concentration to 10%. The solution was administered intraperitoneally at single doses ranging from 200 mg/kg to 1000 mg/kg. The control group received 10% DMSO in 0.9% NaCl intraperitoneally. The animals were monitored daily for 14 days, with attention given to their overall condition, activity, and appetite. At the end of the experiment, all animals were euthanized by inhalation of ether, followed by a pathoanatomical autopsy.

[6] = system: B16 melanoma; assay: Antitumor activity in vivo, tumor growth; design: species or system mouse; details: BDF1 mice, i.p., CP 100 mg/kg days 2, 7, cPt 4 mg/kg days 2–9, 4 300 mg/kg days 2–9
Experimental: Antitumor activity in vivo. The B16 mouse melanoma was used as a tumor model. The B16 melanoma tumor strain was induced in male BDF1 mice by subcutaneous inoculation of 0.2–0.5 mL of a suspension of tumor tissue in medium 199 at intervals of 12–16 days. For the experiments, BDF1 mice were inoculated with 0.3 mL of a suspension of tumor tissue diluted in a 0.9% NaCl solution at a ratio of 1:5 subcutaneously on the right side.
Compound 4 was dissolved in a 0.9% NaCl solution with 1% DMSO. […] Control animals were injected intraperitoneally with 1% DMSO in saline (0.9% NaCl) in the same volumes as the test compounds.
Tumor growth was monitored on days 0, 6, 8, 10, 13, 15, 17, and 20 by measuring the tumor size with a digital caliper. The mean tumor diameter was calculated using the formula:D = 3√a × b × c,(2) where a, b, and c are mutually perpendicular tumor diameters.

[7] = concentration of 1 μM (Figure 3)

T3 sequence (P08254 100-272 limits assumed): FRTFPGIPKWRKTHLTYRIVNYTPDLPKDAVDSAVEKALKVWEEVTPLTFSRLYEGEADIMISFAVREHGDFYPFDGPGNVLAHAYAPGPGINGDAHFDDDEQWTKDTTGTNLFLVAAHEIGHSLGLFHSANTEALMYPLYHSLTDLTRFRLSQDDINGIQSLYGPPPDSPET
T2 sequence (P08253 110-446 limits assumed): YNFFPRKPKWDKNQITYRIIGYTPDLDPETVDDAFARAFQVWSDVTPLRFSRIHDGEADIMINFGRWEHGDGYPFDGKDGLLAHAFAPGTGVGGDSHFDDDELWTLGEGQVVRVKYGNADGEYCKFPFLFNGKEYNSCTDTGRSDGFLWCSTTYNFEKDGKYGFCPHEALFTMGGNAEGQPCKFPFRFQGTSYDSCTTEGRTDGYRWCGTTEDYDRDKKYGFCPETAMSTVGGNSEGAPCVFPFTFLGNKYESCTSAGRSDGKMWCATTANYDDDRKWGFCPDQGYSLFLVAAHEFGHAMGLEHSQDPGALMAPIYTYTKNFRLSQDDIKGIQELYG
T4 sequence (P14780 107-444 limits assumed): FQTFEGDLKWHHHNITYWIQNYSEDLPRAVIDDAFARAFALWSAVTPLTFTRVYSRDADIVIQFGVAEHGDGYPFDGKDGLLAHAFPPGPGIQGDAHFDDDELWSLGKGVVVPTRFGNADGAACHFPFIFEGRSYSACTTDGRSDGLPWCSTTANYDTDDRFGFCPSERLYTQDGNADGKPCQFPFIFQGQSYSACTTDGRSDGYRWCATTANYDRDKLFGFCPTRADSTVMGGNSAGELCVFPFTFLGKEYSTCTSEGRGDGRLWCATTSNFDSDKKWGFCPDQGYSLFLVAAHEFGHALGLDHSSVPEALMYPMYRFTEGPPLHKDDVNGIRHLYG

O=C(CCC(=O)Nc1ccc(I)cc1)NO [Compound 4, N^1-hydroxy-N^4-(4-iodophenyl)butanediamide]
inhibition at 1 µM [1, 7]: ~50%
IC50 ([1]; read-out: MMP-inhibiting activity IC50, MMP-14): 1490 ± 10 nM
inhibition at 1 µM [2, 7]: ~50%
IC50 ([2]; read-out: MMP-inhibiting activity IC50, MMP-2): 1260 ± 10 nM
effect on MMP-3 activity [3, 7]: no effect
concentration with significant effect on MMP-3 activity ([3]; dose–effect relationship (Figure 4)): approximately 10 μM
IC50 ([3]; read-out: MMP-inhibiting activity IC50, MMP-3): > 10000 nM
inhibition at 1 µM [4, 7]: ~50%
IC50 ([4]; read-out: MMP-inhibiting activity IC50, MMP-9): 1060 ± 10 nM
toxicity classification ([5]; intraperitoneally, doses up to 1000 mg/kg, classification of [48]): slightly toxic
body weight change ([5]; single i.p. dose 300 mg/kg or lower, 300 mg/kg): stable increase in body weight; also recorded: did not impact weight gain
body weight change ([5]; single i.p. dose 400 mg/kg): slower weight gain
body weight change ([5]; single i.p. dose 1000 mg/kg, within 7 days, partial recovery on day 14): slight decrease in body weight
body weight change ([5]; single i.p. doses 600 mg/kg and 800 mg/kg, entire observation period): No significant changes in body weight
Tumor Growth Inhibition, % Day 10 [6]: 34.5%
Tumor Growth Inhibition, % Day 13 [6]: 61.5%
Tumor Growth Inhibition, % Day 15 [6]: 50.4%
Tumor Growth Inhibition, % Day 17 [6]: 44.6%
Tumor Growth Inhibition, % Day 20 [6]: 42.3%
